Assay results from patent publication US10647680B2, “Urea compound, preparation method therefor and medical use thereof” (Ancureall Pharmaceutical (Shanghai) Co., Ltd., priority 2016, dated 2020).
pIC50: −log10 of the molar value. Where “and” joins values, the source holds several entries; their conditions need not be identical. Equal entries are not always repeated. Structures can show the parent of a compound that is named as a salt. Where two headings read alike, the source gives them in different places.

Legend:
CYP2C19 = molecular target: T1, CYP2C19 (Homo sapiens, UniProt P33261); test: P450 enzyme inhibition, CYP2C19; format: in vitro ADME; conditions: human liver microsomes
T1 construct: human liver microsomes (BD Gentest) (0.5 mg/mL); tissue BD Gentest; host or cells: human liver microsomes
T1 sequence (P33261 whole entry): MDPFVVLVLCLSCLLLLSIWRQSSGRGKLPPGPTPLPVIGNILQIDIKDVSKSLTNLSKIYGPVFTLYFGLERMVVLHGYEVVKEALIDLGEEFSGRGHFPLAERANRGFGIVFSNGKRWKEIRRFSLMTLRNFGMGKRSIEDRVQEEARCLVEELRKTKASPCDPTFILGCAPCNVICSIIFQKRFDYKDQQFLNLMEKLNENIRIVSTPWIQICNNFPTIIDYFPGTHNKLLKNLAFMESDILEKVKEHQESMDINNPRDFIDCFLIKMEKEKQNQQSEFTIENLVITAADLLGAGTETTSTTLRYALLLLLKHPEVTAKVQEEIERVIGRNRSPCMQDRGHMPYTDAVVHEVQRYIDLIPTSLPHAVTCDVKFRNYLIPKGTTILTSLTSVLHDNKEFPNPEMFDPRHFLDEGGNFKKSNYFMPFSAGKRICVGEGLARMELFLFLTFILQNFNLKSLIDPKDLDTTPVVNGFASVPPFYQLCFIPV
Procedure: Eight cytochrome p450 enzyme inhibition reactions of human liver microsomes were performed using compound 77 of the present invention as a representative example.
The main reaction systems and processes: in 37° C. water bath, the test compounds (7 concentrations, 0, 0.25, 0.5, 5, 10, 25, and 50 uM; the final methanol concentration was 1% in the system), human liver microsomes (BD Gentest) (0.5 mg/mL) and reducing coenzyme II (Roche 10621706001) (1 mg/mL) and the corresponding cytochrome p450 enzyme probe substrate were co-incubated for 5 to 20 minutes. Among them, (1) the probe substrate for CYP1A2 was Phenacetin ([…]) (Sigma), and the selective inhibitor alpha-naphthoflavone (2 uM) (Sigma) was for parallel detection as positive control, and they were incubated for 20 minutes. (2) The probe substrate for CYP2b6 was Bupropion (40 uM) (Sigma) and the selective inhibitor Ticlopidine (10 uM) (Sigma) was for parallel detection as positive control, and they were incubated for 20 minutes. (3) The probe substrate of CYP2C8 was Amodiaquine (1 uM) (Sigma), and the selective inhibitor Montelukast (10 uM) (Sigma) was for parallel detection as positive control, and they were incubated for 20 minutes. (4) The probe substrate for CYP2C9 was Diclofenac (2.5 uM) (Sigma), and the selective inhibitor Sulphaphenazole (10 uM) (Sigma) was for parallel detection as positive control, and they were incubated for 20 minutes. (5) The probe substrate for CYP2C19 was Mephenytoin (40 uM) (Sigma), and the selective inhibitor Ticlopidine (10 uM) (Sigma) was for parallel detection as positive control, and they were incubated for 20 minutes. (6) The probe substrate for CYP2D6 was Dextromethorphan (5 uM) (Sigma), and the selective inhibitor Quinidine (10 uM) (Sigma) was for parallel detection as positive control, and they were incubated for 20 minutes. (7) The probe substrates for CYP3A4-T and CYP3A4-M were Testosterone (5 uM) (Sigma) and Midazolam (5 uM) (Sigma), respectively, and the selective inhibitor was Ketoconazole (1 uM) (Sigma), they were detected in parallel as positive control, and incubated for 5 minutes. The reaction system was quenched by adding methanol containing the corresponding internal standard. The internal standard compound was Tolbutamide (Sigma). The concentration of the corresponding metabolites was determined by LC/MS/MS. For the data analysis, the decrease in peak area of the metabolite of the sample after addition of compound 77 relative to the peak area of the metabolite of the solvent control sample was used to calculate the IC50 (concentration of the test substance at 50% inhibition). The percentages of peak areas of metabolites of CYP1A2, CYP2B6, CYP2C8, CYP2C9, 15CYP2C19, CYP2D6, CYP3A4-T, and CYP3A4-M probe substrates after addition of different concentrations of compound 77 and selective inhibitors relative to the solvent control peak areas were shown in the Table 7.

[1] = In vivo pharmacokinetics in rats; design: species or system rat
Procedure: The pharmacokinetic experiments in rats were performed using compound 77 of the present invention as a representative example.
Procedure: 6 SD male rats (˜200 g, purchased from Shanghai Sippr-BK Experimental Animal Co., Ltd) were selected and divided into two groups according to the experimental design table (Table 9). Animals were administered intravenously and orally. Dosing was performed once on the treating day and the doses were 5 mg/kg and 10 mg/kg, respectively.
Drug formulation method: the required amount of test sample was added to a certain volume of 40% (HP-β-CD) aqueous solution, and then stirred under heating (temperature 25-45° C.) until dissolution, then the same volume of deionized water was added and adjusted to pH 5 with NaOH, to prepare 20% HP-β-CD clear aqueous solution.
For the intravenous administration group, blood samples were taken from jugular veins before administration and 2 min, 5 min, 15 min, 30 min, 1 h, 2 h, 4 h, 6 h, 8 h, and 24 h after administration; for the oral administration group, blood samples were taken from jugular veins before administration and 5 min, 30 min, 1 h, 2 h, 4 h, 6 h, 8 h, 10 h, and 24 h. The collected blood samples were centrifuged to separate plasma within 30 min (centrifugation condition: 8000 rpm, 6 minutes, 2-8° C.). The plasma samples were stored at −80° C. in a freezer before assay. The plasma samples were used for LC-MS/MS method development and sample testing.
The pharmacokinetic parameters (AUC(0-t), AUC(0-∞), T1/2, MRT(0-∞), Cmax, Tmax and F) were calculated using WinNonlin Professional v5.2 (Pharsight USA). In addition, the bioavailability (F) was calculated by the following formula.

[2] = SD rats, intravenously, 5 mg/kg, individual animals 101-103, listed as methanesulfonate of compound 77, 5 mg/kg
[3] = SD rats, orally, 10 mg/kg, individual animals 201-203, listed as methanesulfonate of compound 77, 10 mg/kg
[4] = male, SD, rat, plasma, iv, 5 mg/kg, intravenously, Mean
[5] = male, SD, rat, plasma, iv, 5 mg/kg, intravenously, individual animals 101-103
[6] = male, SD, rat, plasma, po, 10 mg/kg, orally, Mean
[7] = male, SD, rat, plasma, po, 10 mg/kg, orally, individual animals 201-203

In the case of `COCCOc1ccc2c(c1)ncn2-c1ccc(NC(=O)Nc2cc(C(C)(C)C)n[nH]2)cc1` [Compound 77, 1-(5-tert-butyl-2H-pyrazol-3-yl)-3-{4-[5-(2-methoxyl-ethoxyl)-benzimidazol-1-yl]-phenyl}-urea], the “CYP2C19 Remaining %” value (CYP2C19; Concentration 0.25 uM) was 104.2%, the “CYP2C19 Remaining %” value (CYP2C19; Concentration 0.5 uM) was 100.8% and the “CYP2C19 Remaining %” value (CYP2C19; Concentration 5 uM) was 106.9%. For the same compound, the “CYP2C19 Remaining %” value (CYP2C19; Concentration 10 uM) was 102.9%, the “CYP2C19 Remaining %” value (CYP2C19; Concentration 25 uM) was 91.3% and the “CYP2C19 Remaining %” value (CYP2C19; Concentration 50 uM) was 67.6%. The pIC50 (CYP2C19; read-out: half-inhibitory concentration (IC50) of CYP2C19) was less than 4.30.

In the case of `COCCOc1ccc2c(c1)ncn2-c1ccc(NC(=O)Nc2cc(C(C)(C)C)n[nH]2)cc1` [Compound 77 Mesylate, 1-(5-tert-butyl-2H-pyrazol-3-yl)-3-{4-[5-(2-methoxyl-ethoxyl)-benzimidazol-1-yl]-phenyl}-urea], the “AUC(0-t)” value [1, 2] was 14458 ng·h/mL and 13825 ng·h/mL, the “AUC(0-∞)” value [1, 2] was 14501 ng·h/mL and 13969 ng·h/mL and the CL [1, 2] was 5.75 mL/min/kg and 5.97 mL/min/kg. The Cmax [1, 2] was 20795 ng/mL and 17312 ng/mL, the “MRT(0-t)” value [1, 2] was 3.86 h and 4.21 h and the Vss [1, 2] was 1.355 L/kg and 1.599 L/kg. The Vz [1, 2] was 1.473 L/kg and 2.01 L/kg, the t½ [1, 2] was 2.96 h and 3.89 h and the “AUC(0-t)” value [1, 3] was 7249 ng·h/mL and 6927 ng·h/mL. For the same compound, the “AUC(0-∞)” value [1, 3] was 7294 ng·h/mL and 7067 ng·h/mL, the Cmax [1, 3] was 1082 ng/mL and 1095 ng/mL and the “MRT(0-t)” value [1, 3] was 5.07 h and 5.45 h. The t½ [1, 3] was 3.36 h and 4.53 h, the AUC(0-t) ([1]; male, SD, rat, plasma, iv, 5 mg/kg, administered intravenously, 5 mg/kg, read-out: AUC(0-t)) was 14400 ng·h/mL and the Cmax ([1]; male, SD, rat, plasma, iv, 5 mg/kg, administered intravenously, 5 mg/kg, read-out: Cmax) was 18700 ng/mL. The AUC(0-t) ([1]; male, SD, rat, plasma, iv, 5 mg/kg, intravenously, 5 mg/kg, Mean, read-out: AUC(0-t)) was 14400 ng·h/mL, the Cmax ([1]; male, SD, rat, plasma, iv, 5 mg/kg, intravenously, 5 mg/kg, Mean, read-out: Cmax) was 18700 ng/mL and the MRT inf ([1]; male, SD, rat, plasma, iv, 5 mg/kg, intravenously, 5 mg/kg, Mean, read-out: MRT (0-∞)) was 4.27 h. For the same compound, the MRT last ([1]; male, SD, rat, plasma, iv, 5 mg/kg, intravenously, 5 mg/kg, Mean, read-out: MRT(0-t)) was 4.03 h, the Vd ([1]; male, SD, rat, plasma, iv, 5 mg/kg, intravenously, 5 mg/kg, Mean, read-out: Vss) was 1.47 L/kg and the Vd ([1]; male, SD, rat, plasma, iv, 5 mg/kg, intravenously, 5 mg/kg, Mean, read-out: Vz) was 1.8 L/kg. It also gave a half-life ([1]; male, SD, rat, plasma, iv, 5 mg/kg, intravenously, 5 mg/kg, Mean, read-out: t½ (converted)) of 3.62 h, an AUC(0-t) ([1]; male, SD, rat, plasma, iv, 5 mg/kg, intravenously, 5 mg/kg, individual animals 101-103, read-out: AUC(0-t)) of 14900 ng·h/mL and a Cmax ([1]; male, SD, rat, plasma, iv, 5 mg/kg, intravenously, 5 mg/kg, individual animals 101-103, read-out: Cmax) of 18000 ng/mL. For the same compound, the MRT inf ([1]; male, SD, rat, plasma, iv, 5 mg/kg, intravenously, 5 mg/kg, individual animals 101-103, read-out: MRT (0-∞)) was 4.42 h, the MRT last ([1]; male, SD, rat, plasma, iv, 5 mg/kg, intravenously, 5 mg/kg, individual animals 101-103, read-out: MRT(0-t)) was 4.04 h and the Vd ([1]; male, SD, rat, plasma, iv, 5 mg/kg, intravenously, 5 mg/kg, individual animals 101-103, read-out: Vss) was 1.46 L/kg. For the same compound, the Vd ([1]; male, SD, rat, plasma, iv, 5 mg/kg, intravenously, 5 mg/kg, individual animals 101-103, read-out: Vz) was 1.91 L/kg, the half-life ([1]; male, SD, rat, plasma, iv, 5 mg/kg, intravenously, 5 mg/kg, individual animals 101-103, read-out: t½ (converted)) was 4.01 h and the AUC(0-inf) [1, 4] was 14500 ng·h/mL. It also gave a clearance [1, 4] of 5.73 mL/min/kg, an AUC(0-inf) [1, 5] of 15200 ng·h/mL and a clearance [1, 5] of 5.5 mL/min/kg. The AUC(0-t) ([1]; male, SD, rat, plasma, po, 10 mg/kg, administered orally, 10 mg/kg, read-out: AUC(0-t)) was 6770 ng·h/mL, the Cmax ([1]; male, SD, rat, plasma, po, 10 mg/kg, administered orally, 10 mg/kg, read-out: Cmax) was 1050 ng/mL and the AUC(0-t) ([1]; male, SD, rat, plasma, po, 10 mg/kg, orally, 10 mg/kg, Mean, read-out: AUC(0-t)) was 6770 ng·h/mL. It also gave a Cmax ([1]; male, SD, rat, plasma, po, 10 mg/kg, orally, 10 mg/kg, Mean, read-out: Cmax) of 1050 ng/mL, an MRT last ([1]; male, SD, rat, plasma, po, 10 mg/kg, orally, 10 mg/kg, Mean, read-out: MRT(0-t)) of 5.38 h and a half-life ([1]; male, SD, rat, plasma, po, 10 mg/kg, orally, 10 mg/kg, Mean, read-out: t½ (converted)) of 3.86 h. The AUC(0-t) ([1]; male, SD, rat, plasma, po, 10 mg/kg, orally, 10 mg/kg, individual animals 201-203, read-out: AUC(0-t)) was 6140 ng·h/mL, the Cmax ([1]; male, SD, rat, plasma, po, 10 mg/kg, orally, 10 mg/kg, individual animals 201-203, read-out: Cmax) was 977 ng/mL and the MRT last ([1]; male, SD, rat, plasma, po, 10 mg/kg, orally, 10 mg/kg, individual animals 201-203, read-out: MRT(0-t)) was 5.61 h. It also gave a half-life ([1]; male, SD, rat, plasma, po, 10 mg/kg, orally, 10 mg/kg, individual animals 201-203, read-out: t½ (converted)) of 3.7 h, an AUC(0-inf) [1, 6] of 6860 ng·h/mL and an MRT [1, 6] of 5.68 h. The AUC(0-inf) [1, 7] was 6210 ng·h/mL, the MRT [1, 7] was 5.9 h and the Tmax ([1]; male, rat, plasma, po, SD rats, orally, 10 mg/kg, Mean) was 2 h. The bioavailability ([1]; male, rat, plasma, SD rats, oral 10 mg/kg versus intravenous 5 mg/kg) was 23.5%.
